Reference: patent US20180104059A1, “Delivery of Therapy to Living Tissue” (President and Fellows of Harvard College, priority 2015, published 2018)

How the values were obtained:
[1] = in vivo; cited from earlier work
[2] = test system: canine model of myocardial infarction; conditions: ONO1301 alone or in combination with a VRD; cited from earlier work
[3] = Delivery of fluorescently tagged protein via thericardium port versus intraperitoneal, fluorescence at target site; type: in vivo, rat; conditions: after three hours
Excerpt: A bovine serum albumin solution tagged with a fluorescent molecule (Vivotag 800) was delivered via the port 18. […] The bioluminescence from the dose is shown for intraperitoneal delivery (at left) and for direct delivery via the thericardium 10 is shown in FIG. 28.

CC(C)NCC(O)COc1ccc(CC(N)=O)cc1 (centres unmarked) [atenolol]
efficacy with intrapericardial delivery compared to IV administration [1]: improved the efficacy

O=C(O)COc1cccc2c1CCC=C2CCO/N=C(\c1ccccc1)c1cccnc1 [ONO1301]
HGF, VEGF and SDF-1 in the myocardium [2]: upregulation | myocardial vascularization [2]: increase in myocardial vascularization

bovine serum albumin: bovine serum albumin solution tagged with a fluorescent molecule (Vivotag 800), model protein
protein at the target site (fluorescence) ([3]; delivered via the port): sustained concentration | protein at the target site (fluorescence) ([3]; same amount injected intraperitoneally): undetectable quantity
